According to BindingDB's records for patent WO2022081807 (THE BROAD INSTITUTE, INC., 2022):

target: T1, Histone acetyltransferase KAT6A [507-778] (Human, UniProt Q92794); test: Kat6a Activity Assay
T1 construct: 507-778
T1 sequence (Q92794 whole entry): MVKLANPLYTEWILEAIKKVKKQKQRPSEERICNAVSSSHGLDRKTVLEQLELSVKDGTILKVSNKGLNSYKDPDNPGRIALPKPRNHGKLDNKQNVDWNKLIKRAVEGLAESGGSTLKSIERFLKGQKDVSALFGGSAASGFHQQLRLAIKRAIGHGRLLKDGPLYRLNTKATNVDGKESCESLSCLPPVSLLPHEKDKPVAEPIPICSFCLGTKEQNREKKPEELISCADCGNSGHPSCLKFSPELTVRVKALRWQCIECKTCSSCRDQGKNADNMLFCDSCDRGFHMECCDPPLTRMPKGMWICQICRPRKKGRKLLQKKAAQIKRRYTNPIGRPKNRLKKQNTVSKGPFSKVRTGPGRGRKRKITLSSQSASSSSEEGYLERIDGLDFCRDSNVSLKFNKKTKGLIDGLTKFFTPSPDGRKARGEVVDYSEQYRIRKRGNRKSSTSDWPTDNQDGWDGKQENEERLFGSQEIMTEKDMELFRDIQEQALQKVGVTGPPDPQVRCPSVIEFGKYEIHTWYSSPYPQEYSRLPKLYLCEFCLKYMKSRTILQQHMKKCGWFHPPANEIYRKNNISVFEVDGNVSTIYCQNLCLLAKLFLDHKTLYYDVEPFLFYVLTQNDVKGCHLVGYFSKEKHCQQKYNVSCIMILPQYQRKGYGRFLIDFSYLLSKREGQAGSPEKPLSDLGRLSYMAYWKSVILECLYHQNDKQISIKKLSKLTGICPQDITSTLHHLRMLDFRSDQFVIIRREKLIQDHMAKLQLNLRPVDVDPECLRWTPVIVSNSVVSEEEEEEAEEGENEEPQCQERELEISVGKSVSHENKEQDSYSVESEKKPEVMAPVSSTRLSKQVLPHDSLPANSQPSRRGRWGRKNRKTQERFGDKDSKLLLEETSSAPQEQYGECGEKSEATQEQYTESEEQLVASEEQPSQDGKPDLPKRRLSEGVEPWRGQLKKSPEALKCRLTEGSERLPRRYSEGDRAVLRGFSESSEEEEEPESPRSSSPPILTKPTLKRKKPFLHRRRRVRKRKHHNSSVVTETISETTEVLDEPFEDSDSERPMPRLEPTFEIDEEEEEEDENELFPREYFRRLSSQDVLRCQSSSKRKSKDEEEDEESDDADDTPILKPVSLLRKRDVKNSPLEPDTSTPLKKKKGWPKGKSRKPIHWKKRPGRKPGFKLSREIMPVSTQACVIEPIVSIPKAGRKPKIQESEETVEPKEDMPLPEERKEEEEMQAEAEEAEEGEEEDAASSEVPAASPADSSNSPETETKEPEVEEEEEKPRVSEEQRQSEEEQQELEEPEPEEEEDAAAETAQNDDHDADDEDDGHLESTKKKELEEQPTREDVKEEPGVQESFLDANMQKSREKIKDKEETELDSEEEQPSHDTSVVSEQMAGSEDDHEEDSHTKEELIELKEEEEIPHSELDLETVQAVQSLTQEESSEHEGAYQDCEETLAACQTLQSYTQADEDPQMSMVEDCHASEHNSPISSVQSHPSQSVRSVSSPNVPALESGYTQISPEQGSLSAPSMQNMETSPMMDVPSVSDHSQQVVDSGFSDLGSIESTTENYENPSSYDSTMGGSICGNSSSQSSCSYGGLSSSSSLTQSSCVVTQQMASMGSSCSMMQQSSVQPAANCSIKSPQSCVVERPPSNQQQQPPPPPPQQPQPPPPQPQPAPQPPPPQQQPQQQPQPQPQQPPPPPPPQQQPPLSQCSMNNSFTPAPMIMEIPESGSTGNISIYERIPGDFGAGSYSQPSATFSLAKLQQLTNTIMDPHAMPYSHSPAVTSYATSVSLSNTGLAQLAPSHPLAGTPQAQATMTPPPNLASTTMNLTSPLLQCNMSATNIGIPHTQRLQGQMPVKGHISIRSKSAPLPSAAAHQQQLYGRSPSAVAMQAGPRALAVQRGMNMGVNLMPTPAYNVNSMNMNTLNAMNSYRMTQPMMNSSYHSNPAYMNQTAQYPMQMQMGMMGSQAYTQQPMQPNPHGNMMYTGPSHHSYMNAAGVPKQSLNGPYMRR

| SMILES | IC50 [nM] |
| --- | --- |
| CN(C(=O)Oc1ccccc1S(=O)(=O)NC(=O)c1cc2c(F)cc(N3CCC3)cc2o1)c1ccccc1 [WO2022081807, Example 62] | 196 |
| CCS(=O)(=O)c1nc2ccccn2c1S(=O)(=O)NC(=O)c1cc2c(F)cc(N3CC(F)C3)cc2o1 [WO2022081807, Example 167] | 517 |
| O=C(NS(=O)(=O)c1c(NCC(F)F)cccc1C(F)(F)F)c1cc2c(F)cc(N3CCC3)cc2o1 [WO2022081807, Example 92] | 464 |
| O=C(NS(=O)(=O)c1cc(Br)cc2c1OCC2)c1cc2c(F)cc(N3CCC3)cc2o1 [WO2022081807, Example 177] | 21 |
| O=C(NS(=O)(=O)c1cccc2c1OC(F)(F)C(F)(F)O2)c1cc2c(F)cc(N3CCC3)cc2o1 [WO2022081807, Example 140] | 28 |
| COc1ccc(C)cc1S(=O)(=O)NC(=O)c1cc2c(F)cc(N3CCC3)cc2o1 [WO2022081807, Example 156] | 20 |
| Cc1ccc2cccc(S(=O)(=O)NC(=O)c3cc4c(F)cc(N5CCC5)cc4o3)c2n1 [WO2022081807, Example 130] | 14 |
| Cc1cccc(C(C)C)c1S(=O)(=O)NC(=O)c1cc2c(F)cc(N3CCC3)cc2o1 [WO2022081807, Example 53] | 70 |
| CCOc1ccccc1S(=O)(=O)NC(=O)c1cc2c(F)cc(N3CC(C)(F)C3)cc2o1 [WO2022081807, Example 116] | 2290 |
| COc1ccc(Br)cc1S(=O)(=O)NC(=O)c1cc2c(F)cc(N3CCC3)cc2o1 [WO2022081807, Example 139] | 27 |
| CCOc1cccc(C(C)C)c1S(=O)(=O)NC(=O)c1cc2c(F)cc(N3CCC3)cc2o1 [WO2022081807, Example 23] | 29 |
| C[C@H](Oc1ccccc1S(=O)(=O)NC(=O)c1cc2c(F)cc(N3CCC3)cc2o1)C(F)(F)F [WO2022081807, Example 15] | 47 |
| C[C@@H](Oc1ccccc1S(=O)(=O)NC(=O)c1cc2c(F)cc(N3CCC3)cc2o1)C(F)(F)F [WO2022081807, Example 14] | 28 |
| CCOc1ccccc1S(=O)(=O)NC(=O)c1cc2c(F)cc(N3CC[C@@H]3C(N)=O)cc2o1 [WO2022081807, Example 169] | 11 |
| COc1ccc(C)cc1S(=O)(=O)NC(=O)c1cc2c(F)cc(N3CC(F)C3)cc2o1 [WO2022081807, Example 158] | 26 |
| Cc1ccc(OC(C)C)c(S(=O)(=O)NC(=O)c2cc3c(F)cc(N4CCC4)cc3o2)c1 [WO2022081807, Example 134] | 18 |
| CC1(C)CCN1c1cc(F)c2cc(C(=O)NS(=O)(=O)c3ccccc3-c3ccccc3)oc2c1 [WO2022081807, Example 217] | 1190 |
| CC(Oc1ccccc1S(=O)(=O)NC(=O)c1cc2c(F)cc(N3CCC3)cc2o1)C(F)(F)F (racemic) [WO2022081807, Example 13] | 19 |
| O=C(NS(=O)(=O)c1cccc2c1OCC2)c1cc2c(F)cc(N3CCC3)cc2o1 [WO2022081807, Example 18] | 24 |

| SMILES | IC50 [nM] |
| --- | --- |
| CC(C)Oc1cccc(Br)c1S(=O)(=O)NC(=O)c1cc2c(F)cc(N3CCC3)cc2o1 [WO2022081807, Example 39] | 79 |
| Cc1ccc(OCC2CCCC2)c(S(=O)(=O)NC(=O)c2cc3c(F)cc(N4CCC4)cc3o2)c1 [WO2022081807, Example 9] | 21 |
| COc1ccc(C2=CCN(C(=O)OC(C)(C)C)CC2)cc1S(=O)(=O)NC(=O)c1cc2c(F)cc(N3CCC3)cc2o1 [WO2022081807, Example 197] | 6.06 |
| CCOc1cccc(Oc2ccccc2)c1S(=O)(=O)NC(=O)c1cc2c(F)cc(N3CCC3)cc2o1 [WO2022081807, Example 7] | 4.15 |
| Cc1ccc2cccc(S(=O)(=O)NC(=O)c3cc4c(F)cc(N5CCC5C)cc4o3)c2n1 (stereo not drawn) [WO2022081807, Example 221] | 62 |
| COc1cccc(N2CCOCC2)c1S(=O)(=O)NC(=O)c1cc2c(F)cc(N3CCC3)cc2o1 [WO2022081807, Example 137] | 26 |
| Cc1ccc(S(=O)(=O)NC(=O)c2cc3c(F)cc(N4CCC4)cc3o2)c2ccncc12 [WO2022081807, Example 191] | 310 |
| O=C(NS(=O)(=O)c1cccc2ccc(Cl)nc12)c1cc2c(F)cc(N3CC(F)C3)cc2o1 [WO2022081807, Example 154] | 13 |
| CN(C)c1ccccc1S(=O)(=O)NC(=O)c1cc2c(F)cc(N3CCC3)cc2o1 [WO2022081807, Example 11] | 7.52 |
| COc1ccc(-c2cccc(F)c2)cc1S(=O)(=O)NC(=O)c1cc2c(F)cc(N3CCC3)cc2o1 [WO2022081807, Example 198] | 12 |
| O=C(NS(=O)(=O)c1cc(Br)ccc1OC(F)(F)F)c1cc2c(F)cc(N3CCC3)cc2o1 [WO2022081807, Example 82] | 19 |
| CCOc1ccc(Br)cc1S(=O)(=O)NC(=O)c1cc2c(F)cc(N3CCC3)cc2o1 [WO2022081807, Example 135] | 17 |
| COc1ccc(C(C)C)cc1S(=O)(=O)NC(=O)c1cc2c(F)cc(N3CCC3)cc2o1 [WO2022081807, Example 128] | 8.15 |
| COc1ccc(N2CCCC2c2ccccc2)cc1S(=O)(=O)NC(=O)c1cc2c(F)cc(N3CCC3)cc2o1 (stereo not drawn) [WO2022081807, Example 201] | 0.81 |
| CCc1cc(S(=O)(=O)NC(=O)c2cc3c(F)cc(N4CCC4)cc3o2)c(C)s1 [WO2022081807, Example 36] | 367 |
| CCOc1ccc(CC)cc1S(=O)(=O)NC(=O)c1cc2c(F)cc(N3CC(F)C3)cc2o1 [WO2022081807, Example 153] | 11 |
| CC(C)c1ccc(C(C)C)c(S(=O)(=O)NC(=O)c2cc3c(F)cc(N4CCC4)cc3o2)c1 [WO2022081807, Example 30] | 25 |
| O=C(NS(=O)(=O)c1ccccc1OC1CC1)c1cc2c(F)cc(N3CCC3)cc2o1 [WO2022081807, Example 131] | 23 |
| CCOc1ccc(C(F)(F)F)cc1S(=O)(=O)NC(=O)c1cc2c(F)cc(N3CCC3)cc2o1 [WO2022081807, Example 209] | 27 |

target: Histone acetyltransferase KAT6B (Human, UniProt Q8WYB5); test: Kat6b Activity Assay
Sequence (Q8WYB5 whole entry): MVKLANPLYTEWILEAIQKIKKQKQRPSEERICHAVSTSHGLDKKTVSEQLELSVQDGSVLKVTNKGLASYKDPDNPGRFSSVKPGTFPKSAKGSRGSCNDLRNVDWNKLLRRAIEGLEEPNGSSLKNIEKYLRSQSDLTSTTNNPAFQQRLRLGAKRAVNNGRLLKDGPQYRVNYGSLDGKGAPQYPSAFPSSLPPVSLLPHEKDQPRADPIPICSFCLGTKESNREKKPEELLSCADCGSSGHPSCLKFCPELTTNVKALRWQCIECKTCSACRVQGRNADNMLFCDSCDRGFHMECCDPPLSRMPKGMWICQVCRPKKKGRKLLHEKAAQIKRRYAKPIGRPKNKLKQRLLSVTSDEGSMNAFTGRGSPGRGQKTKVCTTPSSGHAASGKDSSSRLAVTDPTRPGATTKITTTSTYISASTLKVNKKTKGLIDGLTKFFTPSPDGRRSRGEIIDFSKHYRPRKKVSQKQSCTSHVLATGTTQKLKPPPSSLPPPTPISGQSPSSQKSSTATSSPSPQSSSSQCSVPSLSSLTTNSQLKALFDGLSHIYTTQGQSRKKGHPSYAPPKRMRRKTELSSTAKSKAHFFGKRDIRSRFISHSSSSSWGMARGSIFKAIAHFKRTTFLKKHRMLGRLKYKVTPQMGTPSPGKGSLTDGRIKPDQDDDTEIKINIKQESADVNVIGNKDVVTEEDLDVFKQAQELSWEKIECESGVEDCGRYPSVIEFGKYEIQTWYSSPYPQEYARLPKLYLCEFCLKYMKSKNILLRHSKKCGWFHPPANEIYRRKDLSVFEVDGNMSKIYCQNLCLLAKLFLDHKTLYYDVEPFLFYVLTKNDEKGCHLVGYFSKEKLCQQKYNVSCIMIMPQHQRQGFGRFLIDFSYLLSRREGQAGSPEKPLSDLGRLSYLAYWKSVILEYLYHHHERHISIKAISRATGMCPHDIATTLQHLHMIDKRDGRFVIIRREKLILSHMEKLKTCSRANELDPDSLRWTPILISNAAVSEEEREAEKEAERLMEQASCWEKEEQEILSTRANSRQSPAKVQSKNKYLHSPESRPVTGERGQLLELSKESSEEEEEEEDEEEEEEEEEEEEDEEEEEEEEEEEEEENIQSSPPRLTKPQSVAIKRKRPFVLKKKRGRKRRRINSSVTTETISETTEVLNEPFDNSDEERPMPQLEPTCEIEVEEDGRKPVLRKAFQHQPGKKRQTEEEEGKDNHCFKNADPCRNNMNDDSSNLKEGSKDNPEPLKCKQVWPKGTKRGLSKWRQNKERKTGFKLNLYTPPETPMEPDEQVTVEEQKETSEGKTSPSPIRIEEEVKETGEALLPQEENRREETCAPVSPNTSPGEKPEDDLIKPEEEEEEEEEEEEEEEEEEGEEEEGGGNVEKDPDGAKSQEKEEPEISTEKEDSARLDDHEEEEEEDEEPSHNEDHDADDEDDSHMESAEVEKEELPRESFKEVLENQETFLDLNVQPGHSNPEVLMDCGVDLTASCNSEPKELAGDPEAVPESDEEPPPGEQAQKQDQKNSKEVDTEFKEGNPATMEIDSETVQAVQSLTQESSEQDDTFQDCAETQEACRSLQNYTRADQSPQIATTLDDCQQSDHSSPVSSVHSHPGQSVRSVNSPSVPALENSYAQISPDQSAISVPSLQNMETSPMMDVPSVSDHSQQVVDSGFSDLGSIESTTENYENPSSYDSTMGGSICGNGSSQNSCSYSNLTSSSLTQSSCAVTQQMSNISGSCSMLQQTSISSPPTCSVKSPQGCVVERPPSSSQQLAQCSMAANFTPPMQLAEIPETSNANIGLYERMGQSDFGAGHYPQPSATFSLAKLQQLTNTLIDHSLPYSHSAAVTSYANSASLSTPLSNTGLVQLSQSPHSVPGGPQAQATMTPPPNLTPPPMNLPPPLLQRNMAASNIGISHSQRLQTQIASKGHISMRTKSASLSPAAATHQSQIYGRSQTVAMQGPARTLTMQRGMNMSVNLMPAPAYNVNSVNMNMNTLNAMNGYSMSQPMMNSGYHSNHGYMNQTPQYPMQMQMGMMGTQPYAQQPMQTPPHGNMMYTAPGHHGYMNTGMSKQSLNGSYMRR
Description: In this case 50 nl DMSO were used instead of compounds. […] IC50 values were determined by regression analysis based on a 4 parameter equation (minimum, maximum, ICM, Hill; Y = Max + (Min - Max) / (1 + (X/ICso) Hill) using the Screener Software (Genedata).

| SMILES | IC50 [nM] |
| --- | --- |
| CCOc1ccc(C(C)(C)C)cc1S(=O)(=O)NC(=O)c1cc2c(F)cc(N3CC(F)C3)cc2o1 [WO2022081807, Example 113] | 12 |
| Cc1ccc2cccc(S(=O)(=O)NC(=O)c3cc4c(F)cc(N5CCC5)cc4o3)c2n1 [WO2022081807, Example 130] | 20 |
| CC(C)c1ccc(OCC2CC2(F)F)c(S(=O)(=O)NC(=O)c2cc3c(F)cc(N4CCC4)cc3o2)c1 (racemic) [WO2022081807, Example 231] | 29 |
| CC(C)Oc1ccc(C(C)(C)C)cc1S(=O)(=O)NC(=O)c1cc2c(F)cc(N3CCC3)cc2o1 [WO2022081807, Example 229] | 28 |
| CC(C)c1ccc(OCC2CC2)c(S(=O)(=O)NC(=O)c2cc3c(F)cc(N4CCC4)cc3o2)c1 [WO2022081807, Example 214] | 20 |
| CC(C)(C)c1ccc(OC2CCC2)c(S(=O)(=O)NC(=O)c2cc3c(F)cc(N4CCC4)cc3o2)c1 [WO2022081807, Example 228] | 13 |
| CC(C)c1ccc(OCc2ccccc2)c(S(=O)(=O)NC(=O)c2cc3c(F)cc(N4CCC4)cc3o2)c1 [WO2022081807, Example 213] | 15 |
| COc1ccc(C(C)C)cc1S(=O)(=O)NC(=O)c1cc2c(F)cc(N3CCC3)cc2o1 [WO2022081807, Example 128] | 15 |
| Cc1ccc2cccc(S(=O)(=O)NC(=O)c3cc4c(F)cc(N5CC(F)C5)cc4o3)c2n1 [WO2022081807, Example 152] | 20 |
| CC(C)c1cccnc1S(=O)(=O)NC(=O)c1cc2c(F)cc(N3CCC3)cc2o1 [WO2022081807, Example 79] | 14 |
